Measured values reported in PMC7490411 (Signal Transduction and Targeted Therapy, 2020).

Tests used:
[1] = test system: PLK2; assay: KINOMEscan; assay type: binding; conditions: 1000 nM
[2] = test system: CTK; assay: KINOMEscan; assay type: binding; conditions: 1000 nM
[3] = test system: RET(V804M); assay: KINOMEscan; assay type: binding; conditions: 1000 nM
[4] = test system: PAK6; assay: KINOMEscan; assay type: binding; conditions: 1000 nM
[5] = test system: REC-1 cell (MCL)-inoculated xenograft; assay: REC-1 cell subcutaneous xenograft tumor model; assay type: in vivo; conditions: for TGI: REC-1 xenograft, 14 days
[6] = test system: SIK2; assay: KINOMEscan; assay type: binding; conditions: 1000 nM
[7] = test system: TAOK2; assay: KINOMEscan; assay type: binding; conditions: 1000 nM
[8] = test system: ERK2; assay: KINOMEscan; assay type: binding; conditions: 1000 nM
[9] = test system: NEK1; assay: KINOMEscan; assay type: binding; conditions: 1000 nM
[10] = test system: RSK4(Kin.Dom.1-N-terminal); assay: KINOMEscan; assay type: binding; conditions: 1000 nM
[11] = test system: RIPK2; assay: KINOMEscan; assay type: binding; conditions: 1000 nM
[12] = test system: FLT3(ITD); assay: KINOMEscan; assay type: binding; conditions: 1000 nM
[13] = test system: BMPR2; assay: KINOMEscan; assay type: binding; conditions: 1000 nM
[14] = test system: CSF1R; assay: KINOMEscan; assay type: binding; conditions: 1000 nM
[15] = test system: FGFR2; assay: KINOMEscan; assay type: binding; conditions: 1000 nM
[16] = test system: TGFBR2; assay: KINOMEscan; assay type: binding; conditions: 1000 nM
[17] = test system: DMPK2; assay: KINOMEscan; assay type: binding; conditions: 1000 nM
[18] = test system: LYN; assay: KINOMEscan; assay type: binding; conditions: 1000 nM
[19] = test system: PIP5K2B; assay: KINOMEscan; assay type: binding; conditions: 1000 nM
[20] = test system: CAMK1B; assay: KINOMEscan; assay type: binding; conditions: 1000 nM
[21] = test system: JAK1(JH1domain-catalytic); assay: KINOMEscan; assay type: binding; conditions: 1000 nM
[22] = test system: ABL1(H396P)-phosphorylated; assay: KINOMEscan; assay type: binding; conditions: 1000 nM
[23] = test system: TYRO3; assay: KINOMEscan; assay type: binding; conditions: 1000 nM
[24] = test system: ANKK1; assay: KINOMEscan; assay type: binding; conditions: 1000 nM
[25] = test system: CSNK1G2; assay: KINOMEscan; assay type: binding; conditions: 1000 nM
[26] = test system: MINK; assay: KINOMEscan; assay type: binding; conditions: 1000 nM
[27] = test system: PIK3CG; assay: KINOMEscan; assay type: binding; conditions: 1000 nM
[28] = test system: AKT3; assay: KINOMEscan; assay type: binding; conditions: 1000 nM
[29] = test system: MAPKAPK5; assay: KINOMEscan; assay type: binding; conditions: 1000 nM
[30] = test system: MYLK2; assay: KINOMEscan; assay type: binding; conditions: 1000 nM
[31] = test system: LKB1; assay: KINOMEscan; assay type: binding; conditions: 1000 nM
[32] = test system: KIT(V559D); assay: KINOMEscan; assay type: binding; conditions: 1000 nM
[33] = test system: p38-gamma; assay: KINOMEscan; assay type: binding; conditions: 1000 nM
[34] = test system: SK-OV-3 cells; assay: NK-cell-mediated ADCC, LDH release cytotoxicity assay, Herceptin; assay type: cell-based, human
Experimental: The cytotoxicity of NK cells was measured using the CyQUANT™ LDH Cytotoxicity Assay Kit (Invitrogen™, #C20300) according to the manufacturer’s instructions. Briefly, enriched NK cells (6 × 10^5 /ml) were cultured with the same volume of Mino cell and SK-OV-3 cell (1-2 × 10^4 /ml) in a 96-well plate for 4 h with Rituximab and Herceptin (10 μg/mL) and CHMFL-BTK-85 or PCI32765 at 37°C in a humidified CO2 incubator prior to removal of the supernatant for lactate dehydrogenase (LDH) release measurements. Calculate % Cytotoxicity by using the following formula: %Cytotoxicity = (Compound-treated LDH activity-Spontaneous LDH activity)/(Maximum LDH activity-Spontaneous LDH activity)*100.

[35] = test system: EPHA7; assay: KINOMEscan; assay type: binding; conditions: 1000 nM
[36] = test system: NEK5; assay: KINOMEscan; assay type: binding; conditions: 1000 nM
[37] = test system: SIK; assay: KINOMEscan; assay type: binding; conditions: 1000 nM
[38] = test system: ERBB2; assay: KINOMEscan; assay type: binding; conditions: 1000 nM
[39] = test system: ADCK3; assay: KINOMEscan; assay type: binding; conditions: 1000 nM
[40] = test system: MAP3K2; assay: KINOMEscan; assay type: binding; conditions: 1000 nM
[41] = test system: RIOK2; assay: KINOMEscan; assay type: binding; conditions: 1000 nM
[42] = test system: WEE1; assay: KINOMEscan; assay type: binding; conditions: 1000 nM
[43] = test system: IKK-beta; assay: KINOMEscan; assay type: binding; conditions: 1000 nM
[44] = test system: PRKD3; assay: KINOMEscan; assay type: binding; conditions: 1000 nM
[45] = test system: PAK3; assay: KINOMEscan; assay type: binding; conditions: 1000 nM
[46] = test system: INSRR; assay: KINOMEscan; assay type: binding; conditions: 1000 nM
[47] = test system: PIK3CA(H1047L); assay: KINOMEscan; assay type: binding; conditions: 1000 nM
[48] = test system: EGFR(L747-E749del, A750P); assay: KINOMEscan; assay type: binding; conditions: 1000 nM
[49] = test system: PRP4; assay: KINOMEscan; assay type: binding; conditions: 1000 nM
[50] = test system: EGFR(L747-T751del,Sins); assay: KINOMEscan; assay type: binding; conditions: 1000 nM
[51] = test system: MEK5; assay: KINOMEscan; assay type: binding; conditions: 1000 nM
[52] = test system: ICK; assay: KINOMEscan; assay type: binding; conditions: 1000 nM

SMILES: C=CC(=O)Nc1cc(Nc2cc(-c3cccc(NC(=O)c4cc5c(s4)CCCC5)c3C)cn(C)c2=O)ccc1N1CCN(CC)CC1 [CHMFL-BTK-85]
- Percent Control [1]: 100%
- Percent Control [2]: 99%
- Percent Control [3]: 68%
- Percent Control [4]: 100%
- TGI ([5]; 100 mg/kg/day): 65%
- TGI ([5]; 150 mg/kg/day): 79%
- toxicity signs in REC-1 xenograft model ([5]; mouse, 100 mg/kg/day): without obvious signs of toxicity
- Percent Control [6]: 83%
- Percent Control [7]: 96%
- Percent Control [8]: 91%
- Percent Control [9]: 95%
- Percent Control [10]: 100%
- Percent Control [11]: 94%
- Percent Control [12]: 99%
- Percent Control [13]: 100%
- Percent Control [14]: 90%
- Percent Control [15]: 77%
- Percent Control [16]: 100%
- Percent Control [17]: 100%
- Percent Control [18]: 100%
- Percent Control [19]: 100%
- Percent Control [20]: 100%
- Percent Control [21]: 96%
- Percent Control [22]: 85%
- Percent Control [23]: 97%
- Percent Control [24]: 100%
- Percent Control [25]: 98%
- Percent Control [26]: 88%
- Percent Control [27]: 100%
- Percent Control [28]: 97%
- Percent Control [29]: 100%
- Percent Control [30]: 91%
- Percent Control [31]: 92%
- Percent Control [32]: 79%
- Percent Control [33]: 62%
- effect on antibody-dependent NK-cell-mediated cytotoxicity (ADCC) [34]: did not affect
- Percent Control [35]: 100%
- Percent Control [36]: 100%
- Percent Control [37]: 99%
- Percent Control [38]: 99%
- Percent Control [39]: 78%
- Percent Control [40]: 100%
- Percent Control [41]: 100%
- Percent Control [42]: 100%
- Percent Control [43]: 100%
- Percent Control [44]: 100%
- Percent Control [45]: 100%
- Percent Control [46]: 90%
- Percent Control [47]: 100%
- Percent Control [48]: 57%
- Percent Control [49]: 92%
- Percent Control [50]: 93%
- Percent Control [51]: 100%
- Percent Control [52]: 100%
